Consider 29 compounds from the Deep4Chem optical property database.

A short description of this data set: solvent given as SMILES.
Setting [1] is: in O=P(c1ccccc1)(c1ccccc1)c1ccc2oc3ccc(P(=O)(c4ccccc4)c4ccccc4)cc3c2c1.

Molecules are shown by their SMILES.

In the case of `CC1(C)C(/C=C/C2=C(Oc3ccc(CCN=C=S)cc3I)C(=C/C=C3/N(CCCS(=O)(=O)[O-])c4ccccc4C3(C)C)/CCC2)=[N+](CCCS(=O)(=O)[O-])c2ccccc21`, the fluorescence lifetime (in CO) was determined as 0.947 ns.

As to `N#Cc1cc(-n2c3ccccc3c3ccccc32)c(C#N)cc1-n1c2ccccc2c2ccccc21`, the fluorescence lifetime (in c1ccc2c(c1)c1ccccc1n2P1(n2c3ccccc3c3ccccc32)=NP(n2c3ccccc3c3ccccc32)(n2c3ccccc3c3ccccc32)=NP(n2c3ccccc3c3ccccc32)(n2c3ccccc3c3ccccc32)=N1) came to 34 ns.

Consider `COc1ccc(-c2csc(/C(C#N)=C/c3c(Cl)cccc3Cl)n2)cc1`, for which the fluorescence lifetime (in CC#N) was 4.07 ns.

The compound `c1ccc(-c2nc(-c3ccccc3)nc(-c3cc(-n4c5ccccc5c5ccccc54)c(-n4c5ccccc5c5ccccc54)c(-n4c5ccccc5c5ccccc54)c3)n2)cc1` displayed a fluorescence lifetime under setting [1] of 13.1 ns.

On to `COc1ccc(C2=C3C(C)=CC(C=Cc4ccc(C(=O)OC5C[C@H]6CCC5(C)C6(C)C)cc4)=[N+]3[B-](F)(F)n3c(C)cc(C)c32)cc1` (some centres not stated), for which the fluorescence lifetime (in Cc1ccccc1) was 3.82 ns.

For the compound `CN(C)c1ccccc1`, the fluorescence lifetime (in C1CCCCC1) was found to be 3 ns.

In the case of `CC1(C)C(/C=C/C2=C(c3ccc(C(=O)O)cc3)C(=C/C=C3/N(CCCCS(=O)(=O)[O-])c4ccc5ccccc5c4C3(C)C)/CCC2)=[N+](CCCCS(=O)(=O)[O-])c2ccc3ccccc3c21`, the fluorescence lifetime came out at 0.84 ns (in CC(C)=O); 0.69 ns (in CCO); 0.61 ns (in CO); 0.98 ns (in CS(C)=O); 1.62 ns (in ClC(Cl)Cl); 1.34 ns (in ClCCl). Moreover, where the note is “in O”, the fluorescence lifetime is 0.2 ns.

With `CCN(CC)c1ccc(/N=N/c2nc3ccc(OC)cc3s2)cc1`, the fluorescence lifetime by setting is: (in CC#N) 2.72 ns; (in ClCCl) 3.13 ns.

Take `Cc1cc(-c2ccccc2C)cc(C)[o+]1`: the fluorescence lifetime reads like this: (in CC#N) 12.2 ns; (in ClCCl) 4.6 ns.

As for `COc1ccc(C2=C3C=c4c(oc5ccccc45)=[N+]3[B-](F)(F)n3c2cc2c4ccccc4oc23)cc1`, the fluorescence lifetime stood at 4.1 ns (in C1CCCCC1), 4.22 ns (in CCOC(C)=O) and 4.14 ns (in CO).

`C/C=C/c1ccc(OC)cc1`: the fluorescence lifetime reads like this: (in CC#N) 8.7 ns; (in CCCCCC) 7.9 ns.

For the compound `CCCCC1=Cc2c3ccc4cccc5ccc(c6cc(-c7ccccc7)n(c26)P1(=O)c1ccccc1)c3c45` (configuration not stated), the fluorescence lifetime (in C1CCCCC1) is 1.9 ns; the fluorescence lifetime (in C1CCOC1) is 1.7 ns; the fluorescence lifetime (in C1COCCO1) stood at 1.8 ns; the fluorescence lifetime (in CC#N) was 1.8 ns; the fluorescence lifetime (in CC(C)=O) was 1.8 ns; the fluorescence lifetime (in CO) was determined as 1.7 ns. The fluorescence lifetime reads like this: (in Cc1ccccc1) 1.7 ns; (in ClC(Cl)Cl) 1.6 ns; (in ClCCl) 1.6 ns.

Regarding `c1ccc(-c2nnc(-c3ccc(N4c5ccccc5N(c5ccccc5)c5ccccc54)cc3)n2-c2ccccc2)cc1`, the fluorescence lifetime is, setting by setting: (in Cc1ccccc1) 3.9 ns; (in c1cc(-n2c3ccccc3c3ccccc32)cc(-n2c3ccccc3c3ccccc32)c1) 3.5 ns.

For `CN(C)c1ccc2nc(-c3ccc(C(=O)OC(C)(C)C)cc3)sc2c1`, the fluorescence lifetime (in C1CCCCC1) came to 2.2 ns.

With `F[B-]1(F)Oc2ccccc2-c2c3c(c4c([n+]21)CCc1ccccc1-4)CCc1ccccc1-3`, the fluorescence lifetime (in ClCCl) came out at 2.15 ns.

The compound `N#Cc1c(-n2c3ccccc3c3cc(Br)ccc32)c(-n2c3ccccc3c3cc(Br)ccc32)c(C#N)c(-n2c3ccccc3c3cc(Br)ccc32)c1-n1c2ccccc2c2cc(Br)ccc21` registered a fluorescence lifetime (in Cc1ccccc1) of 0.4 ns.

`COC(=O)c1[nH]c(-c2ccc([N+](=O)[O-])cc2)c2nnc3ccc(OC)cc3c12` came in with a fluorescence lifetime (in ClCCl) of 2.44 ns.

For the compound `Cc1cc(C)c2cc3cc(C)ncc3cc2c1`, the fluorescence lifetime (in CCO) came to 18 ns.

`CCCCC(CC)CN1C(=O)c2cc(Oc3ccc(C(C)(C)C)cc3)c3c4c(Oc5ccc(OC)cc5)cc5c6c(cc(Oc7ccc(OC)cc7)c(c7c(Oc8ccc(C(C)(C)C)cc8)cc(c2c37)C1=O)c64)C(=O)N(c1c(C(C)C)cccc1C(C)C)C5=O` (configuration not stated) had a fluorescence lifetime (in Cc1ccccc1) of 5.25 ns.

Regarding `CN(C)c1ccc(/C=C/c2ccc(-c3ccc(/C=C/c4ccc(N(C)C)cc4)s3)s2)cc1`, the fluorescence lifetime (in C1CCOC1) worked out at 1.08 ns; the fluorescence lifetime (in CC#N) is 1.12 ns; the fluorescence lifetime (in CC(C)=O) is 1.11 ns; the fluorescence lifetime (in CN(C)C=O) turned out to be 1.15 ns; the fluorescence lifetime (in Cc1ccccc1) worked out at 1.03 ns.

In turn, `F[B-]1(F)OC(c2ccc(N3CCCCC3)cc2)=Cc2cccc[n+]21` showed a fluorescence lifetime (in ClC(Cl)Cl) of 2.68 ns.

`Cn1nc(-c2ccccc2)c2nc3cc(F)ccc3nc21`: the fluorescence lifetime reads like this: (in C1CCCCC1) 23 ns; (in C1CCOC1) 23 ns; (in CC#N) 10.1 ns.

In turn, `CCC1(CC)c2ccccc2-c2c1c1c(c3c2C(CC)(CC)c2cc(/C=C/c4cccs4)ccc2-3)C(CC)(CC)c2ccccc2-1` showed a fluorescence lifetime (in C1CCOC1) of 1.5 ns.

With `Cc1ccc2c(c1)C1(c3ccccc3-c3ccccc31)c1cc(C)ccc1N2c1ccc(-c2nc(-c3ccccc3)cc(-c3ccccc3)n2)cc1`, the fluorescence lifetime under setting [1] worked out at 12 ns.

Under “in CCO”, `CCOc1ccc2c(-c3nc(-c4ccccc4)no3)cc(=O)oc2c1` came in with a fluorescence lifetime of 6.7 ns.

With `C(=C\c1c2ccccc2cc2ccccc12)/c1ccccc1`, the fluorescence lifetime was determined as 3.6 ns (in CC1CCCCC1) and 4.2 ns (in CC#N).

As for `O=c1oc2ccccc2cc1-c1ccc(-c2ccc(-c3cc4ccccc4oc3=O)cc2)cc1`, where the note is “in ClCCl”, the fluorescence lifetime came to 9.47 ns.

On to `C[Si]1(C)c2cc(-c3ccc(N(c4ccccc4)c4ccccc4)cc3)ccc2C=Cc2ccc(-c3ccc(N(c4ccccc4)c4ccccc4)cc3)cc21`, for which the fluorescence lifetime (in ClCCl) was 2.1 ns.

`C#CCNC1=C2C=C(c3cc4n(c3)[B-](F)(F)[N+]3=CC=CC3=C4c3c(C)cc(C)cc3C)C(C)=[N+]2[B-](F)(F)n2c(C)ccc21`: the fluorescence lifetime worked out at 2.3 ns (in C1CCCCC1) and 0.58 ns (in CCOC(C)=O).
